These results are taken from patent US20250066739A1, “Compositions and Methods for Improving Squamous Epithelial Organoids and Their Production” (The Trustees of Columbia University in the City of New York, priority 2022, published 2025).

Assay [1] has as its system EPC1 and EPC2 hTERT-immortalized normal esophageal keratinocytes. The assay can be described thus: Organoid formation by EPC1/EPC2 esophageal 3D organoids. The class given is cell-based. The method, then:
(§1) In general, 2×10^4 cells were seeded per well to initiate PDO in 24-well plates, which were pre-warmed to 37° C. 1.4×10^5 cells were transferred into a 1.7-mL tube and centrifuged at 500×g (2,300 rpm on Eppendorf 5424R) for 3 min at room temperature to pellet cells. Cells were resuspended in 350 μL ice-cold MATRIGEL® and 50 μL of the suspension was aliquoted into each well of 24-well plate. The 24-well plate was placed in a CO2 incubator at 37° C. for 30 min to allow the MATRIGEL® to solidify.
(§2) 500 μL of a tumor-type specific organoid medium (see Example 11) was added to each well, and the organoid media was changed every 2 to 3 days. Contamination and organoid growth was monitored under a phase-contrast microscope, and organoids were allowed to grow for 10 to 14 days and then passaged or harvested. If spherical structures were observed but grew slowly, the culturing period was extended for another 7 to 14 days.
To evaluate organoid growth, 3D organoid structures were monitored during culturing, and their size was documented by a conventional phase-contrast inverted microscope or high-throughput cell imaging instruments (e.g., Celigo Image Cytometer, Nexcelom Bioscience) with the capacity of automated multi-well rapid imaging and quantitative analysis of organoid size, number, and structure. Organoids were grown in 24-well or 96-well plates as described above, and phase-contrast images were manually acquired. Using ImageJ software, the diameter of at least 5 organoids per well was measured. The Celigo Image Cytometer was also used to acquire phase-contrast images and calculate mean organoid area for all organoids imaged. Growth curves were subsequently calculated by repeating measurements every other day and plotting organoid diameter or area at each time point.
In order to improve the success rate of creating and subculturing organoids through increasing numbers of passages, alterations to existing media were explored and compared to each other and the HC media described in Driehuis et al., Cancer Discov, 2019; 9:852-71. […]

The subject of another assay is neoplastic PDOs. Nature of the assay: Growth and formation of neoplastic PDOs. The class given is cell-based, human. The following applies: FIG. 2. The method, then: as §1, §2
To evaluate organoid growth, 3D organoid structures were monitored during culturing, and their size was documented by a conventional phase-contrast inverted microscope or high-throughput cell imaging instruments (e.g., Celigo Image Cytometer, Nexcelom Bioscience) with the capacity of automated multi-well rapid imaging and quantitative analysis of organoid size, number, and structure. […] Using ImageJ software, the diameter of at least 5 organoids per well was measured. […]

On to “EGF: Recombinant human epidermal growth factor (Peprotech, cat. No. AF-100-15) (NSDSECPLSHDGYCLHDGVCMYIEALDKYACNCVVGYIGERCQYRDLKWWELR; Epidermal growth factor; UniProt P01133 971-1023, looked up)”, for which the “organoid formation and structure” value in assay [1] (effect of EGF concentration, esophageal 3D organoids, FIG. 1) is “influences organoid formation and structure”. In addition, in assay [1] (low EGF concentration, FIG. 1), the squamous-cell differentiation gradient result is recorded as “more closely recapitulates a normal squamous-cell differentiation gradient”. In the assay with neoplastic PDOs, the “growth and formation of neoplastic PDOs” value was “may stimulate growth, if not formation”.
Take `Cc1cccc(-c2nn(C(=S)Nc3ccccc3)cc2-c2ccnc3ccccc23)n1` [A83-01, reference compound]: the “EPC1/EPC2 organoid growth in HOME50 devoid of A83-01” value in assay [1] (medium lacking A83-01 (ΔA), FIG. 5) is listed as “did not grow”.
